{"source": "patent US20030202967A1", "about": "“Development and use of human pancreatic cell lines” (priority 1995, published 2003)", "key": {"TRM-1 cells": {"system": "TRM-1 cells", "assay": "Insulin production from TRM-1 cells (radioimmunoassay)", "assay_type": "cell-based, human", "protocol": "Levels of insulin and glucagon released into medium and the corresponding hormone content of acid ethanol extracts of sonicated cells were measured by radioimmunoassay (RIA) as described in Otonkoski, T., et al., J. Clin. Invest., 92:1459-1466 (1993).\nCells grown in this way were treated with nicotinamide for varying periods of time and assayed for insulin production using an extremely sensitive radioimmunoassay {Beattie, G., et al., J. Clin. Endocr. Metab., 78:1232-40 (1994)}."}, "[1]": {"system": "CAT activity in LNSVoCL-infected 208F clones", "assay_type": "cell-based, rat", "settings": "some LNSVoCL-infected 208F clones also infected with pLISVHygL", "protocol": "The ability of LNSVoCL and LoCRNLo to mediate inducible CAT expression was tested in rat 208F cells. The cells were infected by one of the two CAT-expressing vectors followed by the lac repressor-expressing vector pLISVHygL. Infected cells were selected in media containing G418 and hygromycin. CAT activity in LNSVoCL-infected 208F clones was determined in the presence or absence of IPTG."}, "[2]": {"system": "epithelial cells in the human fetal pancreas (HFP)", "assay": "Mitogenic effect on human fetal pancreas epithelial cells", "assay_type": "cell-based", "protocol": "Sci., 05:753-64 (1993)}. Thus, in this example, the epithelial cells were initially grown in the extracellular matrix from 804G cells and HGF/SF in DMEM, supplemented with 10% fetal bovine serum, at 37° C. and 10% CO2. In this growth condition, the epithelial cells formed an islet-like cell cluster (ICC)-derived monolayer cultures having a doubling time of 48 hours. With such high percentage of mitotically active cells, the use of retroviral vectors which require mitotically active cells for successful integration of viral DNA become attractive. After retroviral infection, the epithelial cells were grown in DMEM, supplemented with 10% fetal bovine serum, at 37° C. and 10% CO2, without the extracellular matrix from 804G cells and HGF/SF. The use of HGF/SF offers an added advantage of selecting for epithelial over stromal cells. Stromal cells produce the growth factor HGF. […] Thus, HGF/SF treatment results in selective growth of the epithelial cells but also increases the mitotic index of the epithelial cells. The following method used the HGF/SF method."}}}
{"compound": "NC(=O)c1cccnc1", "note": "[Nic., nicotinamide]", "values": [{"measurement": "Insulin production Day 0", "setting": "TRM-1 cells; TRM-1 suspension culture +10 mM Nic., Day 0", "value": "0 μU insulin/48 hr/ml medium"}, {"measurement": "Insulin production Day 5", "setting": "TRM-1 cells; TRM-1 suspension culture +10 mM Nic., Day 5", "value": "0 μU insulin/48 hr/ml medium"}, {"measurement": "Insulin production Day 7", "setting": "TRM-1 cells; TRM-1 suspension culture +10 mM Nic., Day 7", "value": "0 μU insulin/48 hr/ml medium"}, {"measurement": "Insulin production Day 11", "setting": "TRM-1 cells; TRM-1 suspension culture +10 mM Nic., Day 11", "value": "2.8 μU insulin/48 hr/ml medium"}, {"measurement": "Insulin production Day 13", "setting": "TRM-1 cells; TRM-1 suspension culture +10 mM Nic., Day 13", "value": "4.0 μU insulin/48 hr/ml medium"}, {"measurement": "Insulin production Day 17", "setting": "TRM-1 cells; TRM-1 suspension culture +10 mM Nic., Day 17", "value": "5.6 μU insulin/48 hr/ml medium"}, {"measurement": "Insulin expression in suspension cultures", "setting": "TRM-1 cells; TRM-1 suspension cultures, after 11 days of exposure", "value": "small amounts of insulin"}]}
{"compound": "Cn1c(=O)c2[nH]cnc2n(C)c1=O", "note": "[theophylline]", "values": [{"measurement": "Stimulation of insulin production by treatment", "setting": "TRM-1 cells; TRM-1 cells", "value": "not stimulated"}]}
{"compound": "CC(C)SC1O[C@H](CO)[C@H](O)[C@H](O)[C@H]1O", "note": "(stereo partly shown) [IPTG, isopropyl thiogalactopyranoside]", "values": [{"measurement": "Increase in CAT activity in the presence of IPTG over its absence", "setting": "[1]", "value": "80-100 fold"}]}
{"compound": "HGF/SF: growth factor/scatter factor, ligand of the met receptor", "values": [{"measurement": "Mitogenic effect", "setting": "[2]", "value": "strongly mitogenic"}]}
